Publication PMC2776710 (Basic research in cardiology, 2009)

Target: mitochondrial respiratory complex II (succinate-ubiquinone oxidoreductase) (Rattus norvegicus, UniProt P21913+Q641Z9+Q6PCT8)
Sequence (P21913 31-282): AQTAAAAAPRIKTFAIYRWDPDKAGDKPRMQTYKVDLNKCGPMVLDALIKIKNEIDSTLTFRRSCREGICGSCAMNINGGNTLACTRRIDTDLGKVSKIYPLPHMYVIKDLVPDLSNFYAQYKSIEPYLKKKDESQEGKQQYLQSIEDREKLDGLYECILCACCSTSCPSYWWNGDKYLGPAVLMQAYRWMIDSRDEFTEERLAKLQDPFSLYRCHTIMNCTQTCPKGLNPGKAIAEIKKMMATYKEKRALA
Sequence (Q641Z9 30-169): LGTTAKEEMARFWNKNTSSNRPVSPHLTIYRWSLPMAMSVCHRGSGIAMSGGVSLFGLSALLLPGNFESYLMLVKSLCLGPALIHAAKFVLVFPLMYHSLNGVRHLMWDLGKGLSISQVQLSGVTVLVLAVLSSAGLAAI
Sequence (Q6PCT8 57-159): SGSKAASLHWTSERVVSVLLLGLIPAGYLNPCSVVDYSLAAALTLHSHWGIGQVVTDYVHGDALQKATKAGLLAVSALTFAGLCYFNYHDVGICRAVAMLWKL
Sequence (Q920L2 35-656 partner): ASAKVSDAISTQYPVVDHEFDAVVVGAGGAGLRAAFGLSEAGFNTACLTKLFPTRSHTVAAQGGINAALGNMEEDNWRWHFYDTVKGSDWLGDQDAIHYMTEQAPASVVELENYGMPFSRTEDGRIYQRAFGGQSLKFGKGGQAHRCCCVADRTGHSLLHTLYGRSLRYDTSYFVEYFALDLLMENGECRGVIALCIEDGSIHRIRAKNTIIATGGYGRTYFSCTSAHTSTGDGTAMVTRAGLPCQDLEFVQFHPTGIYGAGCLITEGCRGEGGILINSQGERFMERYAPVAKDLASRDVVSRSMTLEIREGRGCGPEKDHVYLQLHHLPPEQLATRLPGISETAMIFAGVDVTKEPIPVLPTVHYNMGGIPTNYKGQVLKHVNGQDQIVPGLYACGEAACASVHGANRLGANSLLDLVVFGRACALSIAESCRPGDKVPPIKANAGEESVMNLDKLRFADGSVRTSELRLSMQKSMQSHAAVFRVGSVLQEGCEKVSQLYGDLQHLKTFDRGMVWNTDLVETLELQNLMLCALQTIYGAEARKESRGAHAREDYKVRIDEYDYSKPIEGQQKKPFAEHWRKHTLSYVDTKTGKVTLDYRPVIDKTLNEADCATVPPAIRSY

## COc1[nH]c(=O)c(C(=O)[C@@H](C)C[C@H](C)[C@@H](Cl)CCl)c(O)c1OC [AA5, atpenin A5]
  IC50: 8.3 nM
